Assay results as given in the NIST ThermoML archive (doi:10.1021/je0340250).

Columns and labels:
[1] = xn = mol fraction of the nth substance listed

O [water] + C1COCCN1
[1], x2 = 0
Conditions	surface tension liquid-gas [mN/m]
298.15 K	72.01
308.15 K	70.41
318.15 K	68.79
328.15 K	67.17

C1COCCN1 [tetrahydro-1,4-oxazine]
Conditions	surface tension liquid-gas [mN/m]
298.15 K	37.68
308.15 K	36.46
318.15 K	35.24
328.15 K	34.02

CN1CCOCC1 [N-methylmorpholine]
Conditions	surface tension liquid-gas [mN/m]
298.15 K	28.22
308.15 K	27.2
318.15 K	26.18
328.15 K	25.15

CN1CCOCC1 [N-methylmorpholine] + O
surface tension liquid-gas [mN/m], [1]
Conditions	298.15 K	308.15 K	318.15 K	328.15 K
x1 = 0.0082	69.64	67.64	65.75	63.98
x1 = 0.0256	54.94	53.18	51.42	49.66
x1 = 0.0481	50.58	48.64	46.7	44.76
x1 = 0.0539	49.42	47.71	46	44.3
x1 = 0.0747	46.86	45.35	43.83	42.32
x1 = 0.0992	44.62	43.24	41.87	40.49
x1 = 0.1962	38.66	37.36	36.05	34.75
x1 = 0.2972	34.9	33.66	32.43	31.19
x1 = 0.395	32.72	31.54	30.35	29.16
x1 = 0.4993	31.33	30.17	29.02	27.86
x1 = 0.5952	30.56	29.47	28.37	27.28
x1 = 0.6979	29.81	28.73	27.65	26.57
x1 = 0.8028	29.24	28.14	27.03	25.93
x1 = 0.8925	28.81	27.69	26.57	25.45
x1 = 1	28.22	27.2	26.18	25.15

C1COCCN1 [tetrahydro-1,4-oxazine] + O
surface tension liquid-gas [mN/m], [1]
Conditions	298.15 K	308.15 K	318.15 K	328.15 K
x1 = 0.0125	68.36	66.65	64.55	62.68
x1 = 0.0155	67.66	65.85	66.74	61.8
x1 = 0.0251	65.41	63.27	61.14	59
x1 = 0.0496	62.08	60.05	58.03	56
x1 = 0.06	60.89	58.94	56.98	55.03
x1 = 0.0735	59.6	57.66	55.72	53.78
x1 = 0.0793	59.43	57.69	55.63	53.65
x1 = 0.0854	58.94	56.56	54.18	51.8
x1 = 0.0991	57.71	55.42	53.12	50.83
x1 = 0.2005	51.23	49.14	47.05	44.96
x1 = 0.2973	47.24	45.52	43.8	42.09
x1 = 0.3969	44.64	43.2	41.75	40.31
x1 = 0.4996	43.06	41.7	40.33	38.97
x1 = 0.5977	41.55	40.25	38.96	37.66
x1 = 0.7005	40.33	39.12	37.91	36.7
x1 = 0.8034	39.3	38.1	36.9	35.69
x1 = 0.9096	38.38	37.16	35.95	34.73
x1 = 1	37.68	36.46	35.24	34.02

O [water] + CN1CCOCC1
[1], x2 = 0
Conditions	surface tension liquid-gas [mN/m]
298.15 K	72.01
308.15 K	70.41
318.15 K	68.79
328.15 K	67.17
